The text below walks through data of patent publication US20090215783A1, “COMPOSITION FOR INDUCTION OR INHIBITION OF STEM CELL DIFFERENTIATION” (CHOONGWAE PHARMA CORPORATION, priority 2006, published 2009).

For test [1], the system named is human bone marrow derived-mesenchymal stem cells (hBMMSC). Briefly: Osteogenesis modulating activity assay by test compound alone (ALP activity). It is filed as cell-based. The note with it: Homo sapiens, 168 h; hBMMSC, 20 μM test compound alone, six to seven days; read-out: Osteogenesis: fold change of ALP activity compared with DMSO control. As for the experimental part: Cell culture: Human bone marrow derived-mesenchymal stem cells (hBMMSC) were isolated from normal subjects.
Osteogenesis modulating activity assay by test compound alone: hBMMSC were cultivated in the culture medium and cells were seeded into 96-well culture plates and test compounds were dissolved in DMSO and diluted with culture media (final 0.01% DMSO) and added into the media (final concentration of test compound was 20 μM) and cultured in the CO2 incubator (37° C., 5% CO2). Culture medium was changed every two days with fresh one and compound was treated again whenever medium was changed. Six to seven days after incubation, Alkaline phosphatase activity of cell lysates was measured by colorimetry. For the determination of mineralization within the cells, Von Kossa staining or Alizarin Red S assay was performed 10-14 days after incubation.

Test [2] concerns Mouse embryonic stem (ES) cells, TC1. In words: Cardiomyogenesis modulating activity assay (alpha-MHC promoter EGFP, embryoid bodies, FACS/fluorescence microscopy). In kind it is cell-based. Particulars: embryoid bodies treated for 5 days, FACS. As for the experimental part:
a. Cell culture: Mouse embryonic stem (ES) cells, TC1 derived from 129/S6 strain were cultured on irradiated feeder layer in the culture medium which is high-glucose DMEM (Gibco) BRL, Germany) supplemented with 15% FBS (Hyclone), 0.1 mM beta-mercaptoethanol, […] sodium pyruvate, 1 mM L-glutamine and 1× non-essential amino acids.
b. Establishment of alpha-MHC stably transformed ES cell line: A construct (FIG. 8) containing 1.8 kb promoter sequence of the mouse alpha-MHC gene between EcoRI and SalI sites of pEGFP-1 (Clontech Laboratories, Inc, CA, USA) was linearized at XhoI site, and was introduced into mouse ES cells, TC1, using the Gene Pulser II (BioRad, MA). A selection medium containing G418 was applied for two weeks from 24 hours after electroporation. The selected ES cell clones were harvested and expanded on the feeder cell layer. The green fluorescence-expressing clones when differentiated into cardiomyocytes were used in this experiment.
c. Cardiomyogenesis modulating activity assay: Embryoid body (EB) was formed by hanging drop culture using about a number of 600 (six hundred) ES cells for two days and it was further expanded by culturing in suspension condition on a Petri-dish for another two days. Then each EB was plated on a well of 96 well culture plates. Test compounds were dissolved in DMSO and diluted with culture media (final 0.05% DMSO) and EB was treated with test compound for 5 days. Culture medium was changed every three days after plating. Expression level of EGFP was measured with FACS (Beckman). For FACS analysis, differentiating cells were dissociated with trypsin. For the determination of the extent of differentiation, EB was observed and photographed with an inverted fluorescence microscope (Zeiss, Germany). Number of beating EBs was counted under the microscope and recorded once daily.

`CN1CC(=O)N2C(Cc3ccc(Oc4ccccc4)cc3)C(=O)N(Cc3cccc4ccccc34)CC2N1C(=O)NCc1ccccc1` (centres unmarked) [#1]: the fold induction at 20 µM in test [1] was 0.36. In addition, the “Cardiomyogenesis: fold change of EGFP expression level compared with DMSO control” value (shortened to “Cardiomyogenesis: fold change”) in test [2] was found to be 1.21 fold.

With `CC(C)C[C@H]1C(=O)N(CC(=O)N(Cc2ccccc2)c2ccccc2)CC2N1C(=O)CN(C)N2C(=O)NCc1ccccc1` (some centres unmarked) [#2], the fold induction at 20 µM in test [1] stood at 1.09. Moreover, the “Cardiomyogenesis: fold change” value in test [2] turned out to be 1.11 fold.

Consider `CC(C)C[C@H]1C(=O)N(CCOc2ccccc2N)CC2N1C(=O)CN(C)N2C(=O)NCc1ccccc1` (some centres unmarked) [#3], for which the fold induction at 20 µM in test [1] came out at 1.29. For the same compound, the “Cardiomyogenesis: fold change” value in test [2] is 1.25 fold.

In the case of `CC(C)C[C@H]1C(=O)N(CC(=O)N(c2ccccc2)c2cccc(Cl)c2)C[C@H]2N1C(=O)CN(C)N2C(=O)NCc1ccccc1` [#4], the fold induction at 20 µM in test [1] was 0.59. The “Cardiomyogenesis: fold change” value in test [2] is on record as 0.40 fold.

With `CC(C)C[C@H]1C(=O)N(CC(=O)N2c3ccccc3Oc3ccccc32)C[C@H]2N1C(=O)CN(C)N2C(=O)NCc1ccccc1` [#5], the fold induction at 20 µM in test [1] is 0.29. For the same compound, in test [2], the “Cardiomyogenesis: fold change” value is reported as 0.36 fold.

Consider `CN1CC(=O)N2C(CN(Cc3ccc(Cl)c(Cl)c3)C(=O)[C@H]2Cc2ccc(O)cc2)N1C(=O)NCc1cccnc1` (some centres unmarked) [#6], for which the fold induction at 20 µM in test [1] was 0.51. For the same compound, the “Cardiomyogenesis: fold change” value in test [2] was determined as 0.47 fold.

As for `CN1CC(=O)N2[C@@H](Cc3ccc(O)c(C(C)(C)C)c3)C(=O)N(Cc3cccc4cccnc34)C[C@@H]2N1C(=O)NCc1ccccc1` [#7], the fold induction at 20 µM in test [1] worked out at 0.51. Besides, in test [2], the “Cardiomyogenesis: fold change” value was 1.22 fold.

Turning to `CN1CC(=O)N2[C@@H](CN(Cc3cccc(Cl)c3)C(=O)[C@H]2c2ccc(O)cc2)N1C(=O)NCc1ccccc1` [#8], the fold induction at 20 µM in test [1] turned out to be 0.55. For the same compound, in test [2], the “Cardiomyogenesis: fold change” value is 0.65 fold.

Regarding `CN1CC(=O)N2C(CN(Cc3ccc(F)cc3)C(=O)[C@@H]2Cc2ccc(O)cc2)N1C(=O)NCc1ccccc1` (some centres unmarked) [#9], in test [1], the fold induction at 20 µM stood at 0.24. The “Cardiomyogenesis: fold change” value in test [2] turned out to be 1.59 fold.

Consider `CN1CC(=O)N2[C@@H](Cc3ccc(O)cc3)C(=O)N(Cc3cccc4[nH]ncc34)C[C@@H]2N1C(=O)NCc1ccccc1` [#11], for which the fold induction at 20 µM in test [1] was 0.3. The “Cardiomyogenesis: fold change” value in test [2] came out at 0.07 fold.

On to `C#CCNC(=O)N1[C@H]2CN(Cc3cccc4ccccc34)C(=O)[C@H](Cc3ccc(O)cc3)N2C(=O)CN1C` [#12], for which the fold induction at 20 µM in test [1] was 0.76. Also, the “Cardiomyogenesis: fold change” value in test [2] was 1.27 fold.

Regarding `C=CCN1CC(=O)N2C(Cc3ccc(O)cc3)C(=O)N(Cc3ccc(F)cc3F)C[C@H]2N1C(=O)NCc1ccccc1` (some centres unmarked) [#13], the fold induction at 20 µM in test [1] stood at 0.47. In test [2], the “Cardiomyogenesis: fold change” value is 1.02 fold.

For `C=CCN1CC(=O)N2[C@@H](Cc3ccc(O)cc3)C(=O)N(Cc3ccc(F)c4scnc34)C[C@@H]2N1C(=O)NCc1ccccc1F` [#14], in test [1], the fold induction at 20 µM amounted to 0.29.

Consider `CC(C)CN1C[C@H]2N(C(=O)CN(C)N2C(=O)NCc2ccccc2)[C@@H](Cc2ccc(O)cc2)C1=O` [#15], for which the fold induction at 20 µM in test [1] turned out to be 1.12. Moreover, in test [2], the “Cardiomyogenesis: fold change” value came out at 0.41 fold.

For the compound `CC(C)CN1C[C@H]2N(C(=O)CN(C)N2C(=O)NCc2ccccc2)[C@@H](CC(=O)O)C1=O` [#16], the fold induction at 20 µM in test [1] amounted to 0.97. The “Cardiomyogenesis: fold change” value in test [2] was 1.42 fold.

Consider `CC(C)CN1C[C@H]2N(C(=O)CN(C)N2C(=O)NCc2ccccc2)[C@@H](CCC(=O)O)C1=O` [#17], for which the fold induction at 20 µM in test [1] is 1.29. In test [2], the “Cardiomyogenesis: fold change” value turned out to be 2.52 fold.

Take `CC(C)CN1C[C@H]2N(C(=O)CN(C)N2C(=O)NCc2ccccc2)[C@@H](c2ccccc2)C1=O` [#18]: the fold induction at 20 µM in test [1] is 0.93. Also, in test [2], the “Cardiomyogenesis: fold change” value was determined as 2.01 fold.

As for `COc1ccc(CN2CC3N(C(=O)CN(C)N3C(=O)NCc3ccccc3)C(Cc3ccc(O)cc3)C2=O)cc1` (centres unmarked) [#19], the fold induction at 20 µM in test [1] was 0.7. Besides, the “Cardiomyogenesis: fold change” value in test [2] is 3.03 fold.

In the case of `COc1ccc(CN2C[C@H]3N(C(=O)CN(C)N3C(=O)NCc3ccccc3)[C@@H](CC(C)C)C2=O)cc1` [#20], the fold induction at 20 µM in test [1] turned out to be 1.06. In addition, the “Cardiomyogenesis: fold change” value in test [2] was found to be 2.17 fold.

With `COc1ccc(CN2C[C@H]3N(C(=O)CN(C)N3C(=O)NCc3ccccc3)[C@@H](C(C)C)C2=O)cc1` [#21], in test [1], the fold induction at 20 µM was determined as 1.21. Moreover, the “Cardiomyogenesis: fold change” value in test [2] is given as 0.62 fold.

In the case of `COc1ccc(CN2C[C@H]3N(C(=O)CN(C)N3C(=O)NCc3ccccc3)[C@@H](Cc3ccccc3)C2=O)cc1` [#22], the fold induction at 20 µM in test [1] worked out at 0.7. Moreover, the “Cardiomyogenesis: fold change” value in test [2] is given as 1.16 fold.

As to `CCC(C)[C@H]1C(=O)N(Cc2ccc(OC)cc2)C[C@H]2N1C(=O)CN(C)N2C(=O)NCc1ccccc1` (some centres unmarked) [#23], in test [1], the fold induction at 20 µM is 0.86. Further, in test [2], the “Cardiomyogenesis: fold change” value was found to be 1.69 fold.

With `CCC[C@H]1C(=O)N(Cc2ccc(OC)cc2)C[C@H]2N1C(=O)CN(C)N2C(=O)NCc1ccccc1` [#24], in test [1], the fold induction at 20 µM is 0.85. The “Cardiomyogenesis: fold change” value in test [2] is recorded as 1.57 fold.

Turning to `CCCCNC(=O)N1[C@H]2CN([C@@H](C)c3ccccc3)C(=O)[C@H](Cc3ccc(O)cc3)N2C(=O)CN1Cc1ccc(C)cc1` [#45], the fold induction at 20 µM in test [1] was found to be 1.08.

For `CCCCNC(=O)N1[C@H]2CN([C@@H](C)c3ccccc3)C(=O)[C@H](Cc3ccccc3)N2C(=O)CN1Cc1ccc(C)cc1` [#47], in test [2], the “Cardiomyogenesis: fold change” value was found to be 2.32 fold.

For the compound `CCCCNC(=O)N1[C@H]2CN([C@@H](C)c3ccccc3)C(=O)[C@H](CCC)N2C(=O)CN1Cc1ccc(C)cc1` [#48], the “Cardiomyogenesis: fold change” value in test [2] worked out at 1.02 fold.

Turning to `CCCCNC(=O)N1[C@H]2CN([C@@H](C)c3ccccc3)C(=O)[C@H](CC(=O)O)N2C(=O)CN1Cc1ccc(C)cc1` [#49], the “Cardiomyogenesis: fold change” value in test [2] is 1.14 fold.

Take `CCCCNC(=O)N1[C@H]2CN([C@@H](C)c3ccccc3)C(=O)[C@H](CCC(=O)O)N2C(=O)CN1Cc1ccc(C)cc1` [#50]: the “Cardiomyogenesis: fold change” value in test [2] is 0.26 fold.

In the case of `C#CCN1CC(=O)N2C(Cc3ccc(Cl)cc3)C(=O)N(CCCCCCC)C[C@@H]2N1C(=O)NCc1ccccc1` (some centres unmarked) [#52], the “Cardiomyogenesis: fold change” value in test [2] is listed as 1.99 fold.

Take `O=C1[C@H](Cc2ccc(O)cc2)N2C(=O)CN(Cc3ccccc3)N(C(=O)NCc3ccccc3)C2CN1Cc1cccc(F)c1` (some centres unmarked) [#53]: the “Cardiomyogenesis: fold change” value in test [2] was 1.95 fold.

For `CC(C)C[C@H]1C(=O)N(Cc2cccc(F)c2)C[C@H]2N1C(=O)CN(Cc1ccccc1)N2C(=O)NCc1ccccc1` [#54], in test [2], the “Cardiomyogenesis: fold change” value turned out to be 1.42 fold.

For `O=C1[C@H](Cc2ccccc2)N2C(=O)CN(Cc3ccccc3)N(C(=O)NCc3ccccc3)[C@H]2CN1Cc1cccc(F)c1` [#56], in test [2], the “Cardiomyogenesis: fold change” value is on record as 1.08 fold.

On to `CCC[C@H]1C(=O)N(Cc2cccc(F)c2)C[C@H]2N1C(=O)CN(Cc1ccccc1)N2C(=O)NCc1ccccc1` [#58], for which the “Cardiomyogenesis: fold change” value in test [2] was found to be 1.91 fold.

`O=C(O)C[C@H]1C(=O)N(Cc2cccc(F)c2)C[C@H]2N1C(=O)CN(Cc1ccccc1)N2C(=O)NCc1ccccc1` [#59]: the “Cardiomyogenesis: fold change” value in test [2] was found to be 0.48 fold.

`O=C1[C@H](c2ccccc2)N2C(=O)CN(Cc3ccccc3)N(C(=O)NCc3ccccc3)[C@H]2CN1Cc1cccc(F)c1` [#60]: the “Cardiomyogenesis: fold change” value in test [2] amounted to 1.23 fold.

Consider `O=C1[C@@H](Cc2ccccc2)N2C(=O)CN(Cc3ccc(F)cc3)N(C(=O)NCc3ccccc3)[C@@H]2CN1Cc1cccc(C(F)(F)F)c1` [#61], for which, in test [2], the “Cardiomyogenesis: fold change” value was 1.06 fold.

As for `O=C1[C@H](COCc2ccccc2)N2C(=O)CN(Cc3ccc(F)cc3)N(C(=O)NCc3ccccc3)C2CN1Cc1cccc(C(F)(F)F)c1` (some centres unmarked) [#62], the “Cardiomyogenesis: fold change” value in test [2] is recorded as 0.89 fold.
